Results reported in patent US20220235068A1, “TETRACYCLIC COMPOUNDS AS CDC7 INHIBITORS” (Chia Tai Tianqing Pharmaceutical Group Co., Ltd., priority 2019, published 2022).
Counter-ions that a name gives are not always drawn. Like-named read-outs stand apart in the source and are kept apart here. Blank lines part the entries; values can stand above or below the compound they belong to.

Assays:
Cdc7/DBF4 = target: T1, Cdc7/DBF4 (Homo sapiens, UniProt O00311); experiment: Inhibitory effect against activity of Cdc7/DBF4 (ADP-Glo kinase detection kit); format: biochemical; conditions: 10 μM ATP, 25° C., 60 min
T1 construct: purchased Promega
Protocol: Cdc7/DBF4 kinase detection kit purchased from Promega; and
(§1) Nivo multi-marker analyzer (PerkinElmer).
An enzyme, a substrate, adenosine triphosphate and an inhibitor were diluted with the kinase buffer in the kit. A test compound was serially 5-fold diluted to an 8th concentration, i.e., from 10 μM to 0.13 nM, with the DMSO concentration being 5%, and the duplicate well experiment was set up. To a microplate were added 1 μL of inhibitors of various concentration gradients, 2 μL of CDCl7/DBF4 kinase (6.25 ng), 2 μL of a mixture of substrate and ATP (10 μM adenosine triphosphate, 0.2 μg/μL substrate), and the final concentration gradient of the compound was diluted from 2 μM to 0.025 nM. The reaction system was left reacting at 25° C. for 60 min. After the reaction was completed, 5 μL of ADP-Glo reagent was added to each well, and the reaction was continued at 25° C. for 40 min. After the reaction was completed, 10 μL of the kinase detection reagent was added to each well. After 30 min of reaction at 25° C., the chemiluminescence was read using the multi-marker analyzer with an integration time of 0.5 s.
The original data were converted to inhibition using the equation (Sample−Min)/(Max−Min)×100%, and the IC50 value was then curve fitted using four parameters (obtained from the “log(inhibitor) vs. response-Variableslope” model in GraphPadPrism). Table 1 provides the enzymatic inhibitory activity of the compounds disclosed herein against Cdc7/DBF4.

Colo205 cells = experiment: Inhibitory effect against Colo205 cell proliferation (CellTiter-Glo); format: cell-based; conditions: incubation 3 days
Protocol: 1640 medium; fetal bovine serum; penicillin/streptomycin antibiotics purchased from Wisent;
CellTiter-Glo (chemiluminescence detection reagent for cell viability) reagent purchased from Promega;
COL0205 cell line purchased from Wuhan Procell Life Science&Technology Co., Ltd; and
as §1
COL0205 cells were plated on to white 96-well plates by adding 80 μL of cell suspension (containing 3000 COL0205 cells) to each well. The cell plate was incubated in a CO2 incubator overnight.
A test compound was serially 3-fold diluted to an 8th concentration, i.e., from 2 mM to 920 nM, and the duplicate well experiment was set up. 78 μL of medium was added to an intermediate plate, 2 μL of the serially diluted compound was transferred to corresponding wells of the intermediate plate, and after mixing, the mixture was transferred to the cell plate at 20 μL per well. The concentration of the compound transferred to the cell plate ranged from 10 μM to 4.57 nM. The cell plate was incubated in a CO2 incubator for 3 days. Another cell plate was provided for reading signal values on the day of compound addition and these values were used as […] in data analysis. The chemiluminescence detection reagent for cell viability was added to this cell plate at 25 μL per well and the luminescence signals were stabilized by incubation at room temperature for 10 min. Readings were taken using the multi-marker analyzer. The chemiluminescence detection reagent for cell viability was added to the cell plate at 25 μL per well and the luminescence signals were stabilized by incubation at room temperature for 10 min. Readings were taken using the multi-marker analyzer.
The original data were converted to inhibition using the equation (Sample−Min)/(Max−Min)×100%, and the IC50 value was then curve fitted using four parameters (obtained from the “log(inhibitor) vs. response-Variableslope” model in GraphPadPrism). Table 2 provides the inhibitory activity of the compounds disclosed herein against COL0205 cell proliferation.

[1] = tested on: human colorectal cancer cell SW620; experiment: In vivo pharmacodynamic study in subcutaneous xenograft tumor nude mouse model of SW620; conditions: BID, p.o.
Protocol: Human colorectal cancer cell SW620 cells of the 7th passage were cultured in an L-15 medium containing 10% fetal bovine serum, 100 U/mL penicillin and 100 μg/mL streptomycin through in vitro monolayer culture in an incubator at 37° C./[…] for 4 passages with conventional medium replacement. At a cell saturation of 80-90%, the cells were digested with pancreatin-EDTA, counted and resuspended in PBS at a density of 5×10^6 cells/100 μL.
Cell inoculation: Each mouse was inoculated on the right cervical dorsum with 0.1 mL of the cell suspension of 5×10^6 SW620 cells in PBS. At an average tumor volume up to about 134 mm^3, the mice were randomly grouped and administrated.
Tumor diameters were measured twice weekly using a vernier caliper. The tumor volume was calculated using the following formula: V=0.5 a×b^2, where a and b represent the long diameter and short diameter of the tumor, respectively.
The anti-tumor therapeutic effect of the compound was evaluated by TGI (%) or relative tumor proliferation rate T/C (%). Relative tumor proliferation rate T/C (%)=TRTV/CRTV×100% (TRTV: RTV of treatment group; CRTV: RTV of negative control group). Relative tumor volumes (RTVs) were calculated from the tumor measurement results using the following formula: RTV=Vt/VO, where VO is the average tumor volume measured at the time of grouping (i.e., DO), Vt is the average tumor volume measured at a certain measurement, and TRTV and CRTV are taken from the data measured on the same day.
TGI (%), reflects the tumor growth inhibition rate. TGI (%)=[(1−(average tumor volume at the end of administration in a treatment group−average tumor volume at the start of administration of the treatment group))/(average tumor volume at the end of treatment of the vehicle control group−average tumor volume at the start of treatment of the vehicle control group)]×100%.
After day 22 of the grouping, mice were euthanized, plasma and tumors were sampled and tumors were weighed and photographed.

[2] = Single-dose pharmacokinetic study in mice; format: in vivo; conditions: male CD-1 mice
Protocol: To evaluate the pharmacokinetic behavior by using male CD-1 mice as test animals and determining the drug concentrations of the compounds in the plasma after single-dose administration. Healthy adult male CD-1 mice were selected for intragastric administration. A compound was mixed with an appropriate amount of 5% DMSO/95% (10% hydroxypropyl-β-cyclodextrin), vortexed and sonicated to prepare a 1 mg/mL clear solution for later use. After the mice were administered intravenously at 2 mg/kg and orally at 10 mg/kg, whole blood was collected at certain time points, and plasma was separated. After pretreatment of the samples, the drug concentration was measured by LC-MS/MS, and pharmacokinetic parameters were calculated using Phoenix WinNonlin software.

[3] = mouse, plasma, IV: 2 mg/kg, PO: 10 mg/kg

T1 sequence (O00311 whole entry): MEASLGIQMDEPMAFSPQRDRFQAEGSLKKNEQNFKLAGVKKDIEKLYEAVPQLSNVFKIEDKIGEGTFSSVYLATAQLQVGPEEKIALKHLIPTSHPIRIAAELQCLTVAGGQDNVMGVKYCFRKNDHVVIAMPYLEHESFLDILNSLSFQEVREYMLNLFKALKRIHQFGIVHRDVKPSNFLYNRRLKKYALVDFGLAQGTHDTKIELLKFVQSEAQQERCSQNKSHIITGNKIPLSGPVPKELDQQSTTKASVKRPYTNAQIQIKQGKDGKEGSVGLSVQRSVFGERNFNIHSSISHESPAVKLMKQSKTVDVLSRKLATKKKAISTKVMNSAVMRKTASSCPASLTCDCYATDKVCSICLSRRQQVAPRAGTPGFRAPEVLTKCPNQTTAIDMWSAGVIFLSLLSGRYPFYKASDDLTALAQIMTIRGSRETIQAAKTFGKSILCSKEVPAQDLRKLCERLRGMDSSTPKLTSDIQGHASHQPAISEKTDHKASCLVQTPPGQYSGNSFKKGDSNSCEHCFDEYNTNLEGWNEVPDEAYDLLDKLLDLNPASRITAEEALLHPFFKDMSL
T1 sequence (Q9UBU7 whole entry partner): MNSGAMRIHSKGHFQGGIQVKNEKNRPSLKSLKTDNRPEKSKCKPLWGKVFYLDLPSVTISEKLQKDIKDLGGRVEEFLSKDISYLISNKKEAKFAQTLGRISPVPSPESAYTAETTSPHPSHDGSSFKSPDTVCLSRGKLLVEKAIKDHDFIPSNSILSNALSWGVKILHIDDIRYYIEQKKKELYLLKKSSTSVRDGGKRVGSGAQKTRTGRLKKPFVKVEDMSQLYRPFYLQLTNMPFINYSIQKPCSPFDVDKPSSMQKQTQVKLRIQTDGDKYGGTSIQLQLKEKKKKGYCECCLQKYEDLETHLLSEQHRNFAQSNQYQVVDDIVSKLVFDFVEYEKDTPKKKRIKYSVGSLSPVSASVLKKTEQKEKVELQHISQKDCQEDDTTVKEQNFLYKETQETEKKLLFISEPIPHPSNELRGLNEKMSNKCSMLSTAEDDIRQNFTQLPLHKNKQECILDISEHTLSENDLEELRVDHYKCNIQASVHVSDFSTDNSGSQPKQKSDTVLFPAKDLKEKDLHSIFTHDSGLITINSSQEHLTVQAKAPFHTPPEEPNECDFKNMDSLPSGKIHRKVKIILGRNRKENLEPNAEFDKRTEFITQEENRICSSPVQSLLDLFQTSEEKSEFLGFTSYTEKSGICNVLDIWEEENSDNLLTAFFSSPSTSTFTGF

Structure (SMILES): O=c1[nH]c([C@H]2CC3CCN2CC3)nc2c3c(sc12)-c1c[nH]nc1CCC3 (single isomer, unassigned) [Compound 1-1 hydrochloride]
IC50 (Cdc7/DBF4): 3.02 nM
IC50 (Colo205 cells): 13.8 nM
Tumor volume (Day 1) ([1]; 2.5 mg/kg): 134 ± 13 mm^3
RTV (Day 21) ([1]; 2.5 mg/kg): 1.88
T/C (%) (Day 21) ([1]; 2.5 mg/kg): 22%
TGI (%) (Day 21) ([1]; 2.5 mg/kg): 89%
Tumor volume (Day 21) ([1]; 2.5 mg/kg): 237 ± 27 mm^3
Tumor volume (Day 1) ([1]; 5 mg/kg): 134 ± 15 mm^3
RTV (Day 21) ([1]; 5 mg/kg): 0.93
T/C (%) (Day 21) ([1]; 5 mg/kg): 11%
TGI (%) (Day 21) ([1]; 5 mg/kg): 100%
Tumor volume (Day 21) ([1]; 5 mg/kg): 133 ± 32 mm^3
Tumor volume (Day 1) ([1]; 7.5 mg/kg): 134 ± 14 mm^3
RTV (Day 21) ([1]; 7.5 mg/kg): 0.31
T/C (%) (Day 21) ([1]; 7.5 mg/kg): 4%
TGI (%) (Day 21) ([1]; 7.5 mg/kg): 108%
Tumor volume (Day 21) ([1]; 7.5 mg/kg): 53 ± 16 mm^3
Maximum concentration ([2]; IV: 2 mg/kg, PO: 10 mg/kg): 2230 nM
AUC(0-t) ([2]; mouse, plasma, IV 2 mg/kg, read-out: AUC0-last (intravenous injection)): 2.45 µM·h
bioavailability [2, 3]: 71.4%
clearance [2, 3]: 35.2 mL/min/kg
half-life [2, 3]: 4.03 h
Vd ([2]; mouse, plasma, IV: 2 mg/kg, PO: 10 mg/kg, read-out: Apparent volume of distribution): 4.13 L/kg
AUC(0-t) ([2]; mouse, plasma, PO 10 mg/kg, read-out: AUC0-last (oral)): 9.08 µM·h

Structure (SMILES): O=c1[nH]c([C@H]2CC3CCN2CC3)nc2c3c(sc12)-c1c[nH]nc1CCC3 (single isomer, unassigned) [Compound 1-2 hydrochloride]
IC50 (Cdc7/DBF4): 1.29 nM
IC50 (Colo205 cells): 53.6 nM

Structure (SMILES): CN1CCCC1c1nc2c3c(sc2c(=O)[nH]1)-c1c[nH]nc1CCC3 (single isomer, unassigned) [Compound 3-1 hydrochloride]
IC50 (Cdc7/DBF4): 1.19 nM

Structure (SMILES): CC(C)N1CCCC1c1nc2c3c(sc2c(=O)[nH]1)-c1c[nH]nc1CCC3 (single isomer, unassigned) [Compound 6-1 hydrochloride]
IC50 (Cdc7/DBF4): 1.7 nM

Structure (SMILES): CC(C)N1CCCC1c1nc2c3c(sc2c(=O)[nH]1)-c1c[nH]nc1CCC3 (single isomer, unassigned) [Compound 6-2 hydrochloride]
IC50 (Cdc7/DBF4): 0.99 nM

Structure (SMILES): CN1CCCCC1c1nc2c3c(sc2c(=O)[nH]1)-c1c[nH]nc1CCC3 (single isomer, unassigned) [Compound 7-1 formate]
IC50 (Cdc7/DBF4): 3.07 nM

Structure (SMILES): CN1CCCCC1c1nc2c3c(sc2c(=O)[nH]1)-c1c[nH]nc1CCC3 (single isomer, unassigned) [Compound 7-2 formate]
IC50 (Cdc7/DBF4): 2.7 nM

Structure (SMILES): CN1CCCC(c2nc3c4c(sc3c(=O)[nH]2)-c2c[nH]nc2CCC4)C1 (single isomer, unassigned) [Compound 9-1 hydrochloride]
IC50 (Cdc7/DBF4): 4.85 nM

Structure (SMILES): CN1CCCC(c2nc3c4c(sc3c(=O)[nH]2)-c2c[nH]nc2CCC4)C1 (single isomer, unassigned) [Compound 9-2 hydrochloride]
IC50 (Cdc7/DBF4): 1.09 nM

Structure (SMILES): O=c1[nH]c(C2C3CCN2CC3)nc2c3c(sc12)-c1c[nH]nc1CCC3 (single isomer, unassigned) [Compound 14-1 hydrochloride]
IC50 (Cdc7/DBF4): 1.21 nM
IC50 (Colo205 cells; Homo sapiens, COLO 205, 72 h): 50.1 nM

Structure (SMILES): O=c1[nH]c(C2C3CCN2CC3)nc2c3c(sc12)-c1c[nH]nc1CCC3 (single isomer, unassigned) [Compound 14-2 hydrochloride]
IC50 (Cdc7/DBF4): 1.43 nM

Structure (SMILES): O=c1[nH]c(C2CCNCC2)nc2c3c(sc12)-c1c[nH]nc1CCC3 [Compound 10 hydrochloride]
IC50 (Cdc7/DBF4): 1.69 nM

Structure (SMILES): CN1CCC(c2nc3c4c(sc3c(=O)[nH]2)-c2c[nH]nc2CCC4)CC1 [Compound 11 hydrochloride]
IC50 (Cdc7/DBF4): 4.85 nM

Structure (SMILES): CN1CCC(C)(c2nc3c4c(sc3c(=O)[nH]2)-c2c[nH]nc2CCC4)CC1 [Compound 13 hydrochloride]
IC50 (Cdc7/DBF4): 5.66 nM

Structure (SMILES): Cc1n[nH]cc1-c1cc2nc([C@@H]3CC4CCN3CC4)[nH]c(=O)c2s1 [TAK-931, reference compound]
Tumor volume (Day 1) ([1]; 40 mg/kg): 134 ± 13 mm^3
RTV (Day 21) ([1]; 40 mg/kg): 1.36
T/C (%) (Day 21) ([1]; 40 mg/kg): 16%
TGI (%) (Day 21) ([1]; 40 mg/kg): 96%
Tumor volume (Day 21) ([1]; 40 mg/kg): 176 ± 27 mm^3

Continued, values first:

IC50 (Cdc7/DBF4): 3.73 nM
Structure (SMILES): O=c1[nH]c(C2CCCN2)nc2c3c(sc12)-c1c[nH]nc1CCC3 (single isomer, unassigned) [Compound 2-1 hydrochloride]

IC50 (Cdc7/DBF4): 1.52 nM
Structure (SMILES): O=c1[nH]c(C2CCCN2)nc2c3c(sc12)-c1c[nH]nc1CCC3 (single isomer, unassigned) [Compound 2-2 hydrochloride]

IC50 (Cdc7/DBF4): 0.42 nM
Structure (SMILES): CN1CCCC1c1nc2c3c(sc2c(=O)[nH]1)-c1c[nH]nc1CCC3 (single isomer, unassigned) [Compound 3-2 hydrochloride]

IC50 (Cdc7/DBF4): 4.56 nM
Structure (SMILES): CC1(c2nc3c4c(sc3c(=O)[nH]2)-c2c[nH]nc2CCC4)CCCN1 (single isomer, unassigned) [Compound 4-1 hydrochloride]

IC50 (Cdc7/DBF4): 6.73 nM
Structure (SMILES): CC1(c2nc3c4c(sc3c(=O)[nH]2)-c2c[nH]nc2CCC4)CCCN1 (single isomer, unassigned) [Compound 4-2 hydrochloride]

IC50 (Cdc7/DBF4): 2.04 nM
Structure (SMILES): CN1CCCC1(C)c1nc2c3c(sc2c(=O)[nH]1)-c1c[nH]nc1CCC3 (single isomer, unassigned) [Compound 5-1 hydrochloride]

IC50 (Cdc7/DBF4): 2.35 nM
Structure (SMILES): CN1CCCC1(C)c1nc2c3c(sc2c(=O)[nH]1)-c1c[nH]nc1CCC3 (single isomer, unassigned) [Compound 5-2 hydrochloride]

IC50 (Cdc7/DBF4): 4.27 nM
Structure (SMILES): O=c1[nH]c(C2CCCNC2)nc2c3c(sc12)-c1c[nH]nc1CCC3 (single isomer, unassigned) [Compound 8-1 hydrochloride]

IC50 (Cdc7/DBF4): 1.17 nM
Structure (SMILES): O=c1[nH]c(C2CCCNC2)nc2c3c(sc12)-c1c[nH]nc1CCC3 (single isomer, unassigned) [Compound 8-2 hydrochloride]

IC50 (Cdc7/DBF4): 1.38 nM
Structure (SMILES): CC1(c2nc3c4c(sc3c(=O)[nH]2)-c2c[nH]nc2CCC4)CCNCC1 [Compound 12 hydrochloride]
